56 molecules from paper doi:10.1101/2025.05.02.651913 (bioRxiv, 2025) can be followed below.

Counter-ions that a name gives are not always drawn.

For the assay, the system named is MPXV strain hMPXV/USA/MA001/2022 (Lineage B.1, Clade IIb). It counts as cell-based, Mpox virus (MPXV).
`COc1c(F)cccc1Nc1c(-c2ccncc2OCC(C)(C)OC)[nH]c2c1C(=O)NCC2` [MC-BAY 2476568, BAY 2476568]: the “Duplicate of Duplicate of Hits: No CPE” value is recorded as 1. Turning to `C=CC(=O)Nc1cc(C)ccc1Nc1nc(Nc2cc(OC)ncc2C)ncc1C(F)(F)F` [MC-CC-90003, CC-90003], the “Duplicate of Duplicate of Hits: No CPE” value was 1. Regarding `Cc1nc2c(-c3cnc(N)nc3)nc(N3CCOCC3)nc2n1C(C)C` [NKIL-VS-5584 (SB2343), VS-5584], the “Duplicate of Duplicate of Hits: No CPE” value came to 1.

For the molecule `C=CC(=O)N1C[C@H](COc2nc(Nc3cnn(C)c3)nc3[nH]cc(Cl)c23)[C@@H](OC)C1` [MC-PF-06459988, PF-06459988], the “Duplicate of Duplicate of Hits: No CPE” value turned out to be 1. On to XMU-MP-3 [MC-XMU-MP-3], for which the “Duplicate of Duplicate of Hits: No CPE” value was 1. For the molecule `O=C(NOCCO)c1cc(CN2OCCCC2=O)c(F)c(F)c1Nc1ccc(I)cc1F` [MC-RO4987655, RO4987655], the “Duplicate of Duplicate of Hits: No CPE” value is reported as 1. Consider `COc1cc2ncnc(Nc3ccc(F)c(Cl)c3)c2cc1OCCN1CC2(CC2)C2(C1)OCCO2` [MC-Simotinib, Simotinib], for which the “Duplicate of Duplicate of Hits: No CPE” value is given as 1. Regarding `Cc1cccc(/C=N/Nc2cc(N3CCOCC3)nc(OCCc3ccccn3)n2)c1` [MC-Apilimod, Apilimod], the “Duplicate of Duplicate of Hits: No CPE” value stood at 1.

As for `C=CC(=O)N1CCC[C@@H](n2c(=O)n(-c3ccc(Oc4ccccc4)cc3)c3c(N)nccc32)C1` [MC-Tolebrutinib, Tolebrutinib], the “Duplicate of Duplicate of Hits: No CPE” value is 1. On to `COc1cc2ncnc(Nc3ccc(F)c(Cl)c3)c2cc1OCCCN1C[C@@H]2OCCO[C@@H]2C1.CS(=O)(=O)O.CS(=O)(=O)O.O` [MC-Larotinib (mesylate hydrate), Larotinib (mesylate hydrate)], for which the “Duplicate of Duplicate of Hits: No CPE” value amounted to 1. `C=CC(=O)N[C@H]1C=C(C)c2c(-c3cnc4ccccc4c3)c3c(N)ncnc3n2C1` [MC-Zipalertinib, Zipalertinib]: the “Duplicate of Duplicate of Hits: No CPE” value is 1. `CNS(=O)(=O)Nc1nccc(Cc2c(C)c3ccc(Oc4ncccn4)cc3oc2=O)c1F` [MC-Avutometinib, Avutometinib]: the “Duplicate of Duplicate of Hits: No CPE” value came to 1. With `O=C(Nc1ccncc1)Nc1ccc(-c2nc(N3CCOCC3)nc(N3C4CCC3COC4)n2)cc1` [MC-PKI-179 (hydrochloride), PKI-179 (hydrochloride)], the “Duplicate of Duplicate of Hits: No CPE” value was determined as 1. Consider `COc1cc2ncnc(Nc3cccc(Cl)c3)c2cc1OC` [LOPAC-Tyrphostin AG 1478, Tyrphostin AG 1478], for which the “Duplicate of Duplicate of Hits: No CPE” value came to 1. The same measure for JAK-IN-23 [MC-JAK-IN-23]: 1; for `Cc1ccc(C(=O)Nc2ccc(CN3CCN(C)CC3)c(C(F)(F)F)c2)cc1C#Cc1cnc2cccnn12.Cl` [MC-Ponatinib (hydrochloride), Ponatinib (hydrochloride)]: 1; for `C#Cc1cccc(Nc2ncnc3cc(OCCOC)c(OCCOC)cc23)c1` [Erlotinib]: 1. As to `C=CC(=O)Nc1cc(Nc2nccc(-c3cn(C)c4ccccc34)n2)c(OC)cc1N(C)CCN(C)C.CS(=O)(=O)O` [MC-Osimertinib (mesylate), Osimertinib (mesylate)], the “Duplicate of Duplicate of Hits: No CPE” value was 1. Take `Cc1cnc(Nc2ccc(F)cc2Cl)nc1-c1c[nH]c(C(=O)N[C@H](CO)c2cccc(Cl)c2)c1` [NKIL-VX-11e, VX-11e]: the “Duplicate of Duplicate of Hits: No CPE” value is given as 1. Take `C=CC(=O)Nc1cc(Nc2nccc(-c3cn(CC(F)(F)F)c4ccccc34)n2)c(OC)cc1N(C)CCN(C)C` [MC-Befotertinib, Befotertinib]: the “Duplicate of Duplicate of Hits: No CPE” value turned out to be 1. The same measure for `C=CC(=O)Nc1cc(Nc2nccc(-n3cc(CN(C)C)c(-c4ccccc4)n3)n2)c(OC)cc1N1CCOCC1` [MC-Lazertinib, Lazertinib]: 1; for `O=C(c1ccc(F)c(F)c1Nc1ccc(I)cc1F)N1CC(O)([C@@H]2CCCCN2)C1` [NKIL-Cobimetinib (GDC-0973, RG7420), Cobimetinib]: 1. On to `C=CC(=O)Nc1cc(Nc2nccc(-c3c4n(c5ccccc35)CCCC4)n2)c(OC)cc1N(C)CCN(C)C` [MC-Oritinib, Oritinib], for which the “Duplicate of Duplicate of Hits: No CPE” value is 1. In the case of `CNc1ncc2cc(-c3cc(NC(=O)NCCC(C)(C)C)c(F)cc3C)c(C)nc2n1` [MC-LY3009120, LY3009120] it was 1. Consider `C=CCn1cc(-c2ccc(NC(=O)Nc3cc(C(C)(C)C)on3)cc2)c2c(N)ncnc21` [MC-FLT3-IN-4, FLT3-IN-4], for which the “Duplicate of Duplicate of Hits: No CPE” value was determined as 1.

On to `C=CC(=O)Nc1ccc2ncnc(Nc3ccc(OCc4cccc(F)c4)c(Cl)c3)c2c1.Cc1ccc(S(=O)(=O)O)cc1` [NKIL-AST-1306, Allitinib tosylate], for which the “Duplicate of Duplicate of Hits: No CPE” value is on record as 1. Consider `CN(C)C/C=C/C(=O)Nc1cc2c(Nc3ccc(F)c(Cl)c3)ncnc2cc1OC(F)F` [MC-Mefatinib (free base), Mefatinib (free base)], for which the “Duplicate of Duplicate of Hits: No CPE” value is 1. Take `CN(C)C/C=C/C(=O)Nc1cc2c(Nc3ccc(Cl)c(Br)c3)ncnc2cn1` [MC-Tarlox-TKI, Tarlox-TKI]: the “Duplicate of Duplicate of Hits: No CPE” value is reported as 1. With `C#Cc1cccc(Nc2ncnc3cc(OC)c(NC(=O)N4C[C@H]5CCN(C)[C@H]5C4)cc23)c1` [MC-Theliatinib, Theliatinib], the “Duplicate of Duplicate of Hits: No CPE” value was found to be 1.

On to `C=CC(=O)Nc1cc(Nc2nccc(-c3cn(C)c4ccccc34)n2)c(OC)cc1OCCN(C)C` [MC-Rezivertinib, Rezivertinib], for which the “Duplicate of Duplicate of Hits: No CPE” value was 1. Regarding `Cc1cc(C(=O)NOCCO)c(Nc2ccc(I)cc2F)n(C)c1=O` [NKIL-AZD8330, AZD8330], the “Duplicate of Duplicate of Hits: No CPE” value came to 1. The same measure for `CC#CC(=O)Nc1ccc2ncnc(Nc3cccc(Br)c3)c2c1` [MC-CL-387785, CL-387785]: 1; for `C=CC(=O)Nc1cc2c(Nc3ccc(F)c(Cl)c3)ncnc2cc1OCCCN1CCOCC1` [MC-Canertinib, Canertinib]: 1. Take `C=CC(=O)Nc1cccc(Oc2nc(Nc3ccc(N4CCN(C)CC4)cc3OC)ncc2Cl)c1` [NKIL-WZ4002, WZ4002]: the “Duplicate of Duplicate of Hits: No CPE” value worked out at 1. In the case of `C=CC(=O)Nc1cc(Nc2nccc(-c3cn(C)c4ccccc34)n2)c(OC)cc1N(C)CCN(C)C` [NKIL-AZD9291, Osimertinib] it was 1.

As for `C#Cc1cccc(Nc2ncnc3cc(OCCOC)c(OCCOC)cc23)c1.Cl` [MC-Erlotinib (Hydrochloride), Erlotinib (Hydrochloride)], the “Duplicate of Duplicate of Hits: No CPE” value stood at 1. In the case of `CC(=O)Nc1cccc(-n2c(=O)n(C3CC3)c(=O)c3c(Nc4ccc(I)cc4F)n(C)c(=O)c(C)c32)c1.C[S+](C)[O-]` [MC-Trametinib (DMSO solvate), Trametinib (DMSO solvate)] it was 1.

For the molecule JNK-IN-7 [MC-JNK-IN-7], the “Duplicate of Duplicate of Hits: No CPE” value was 1. In the case of `C=CC(=O)N1CCC[C@H](n2c(=O)n(-c3ccc(Oc4ccccc4)cc3)c3c(N)ncnc32)C1` [MC-ONO-4059 (analog), ONO-4059 (analog)] it was 1. In the case of “Mutant EGFR inhibitor [MC-Mutant EGFR inhibitor]” it was 1; in that of `C=CC(=O)Nc1cc(Nc2nccc(-c3c[nH]c4ccccc34)n2)c(OC)cc1N(C)CCN(C)C` [MC-AZ-5104, AZ-5104], 1.

For the molecule `CCS(=O)(=O)c1cc(Nc2ncc(F)c(N(Cc3ccccc3C#N)c3cc(CO)ccc3C)n2)ccc1N1CCN(C)CC1` [MC-AZ13705339, AZ13705339], the “Duplicate of Duplicate of Hits: No CPE” value is listed as 1. `C#Cc1cccc(Nc2ncnc3cc(OCCOC)c(OCCO)cc23)c1.Cl` [MC-Desmethyl Erlotinib, Desmethyl Erlotinib]: the “Duplicate of Duplicate of Hits: No CPE” value stood at 1. `COc1cccc(Nc2ncnn3ccc(CN4CC[C@@H](N)[C@H](O)C4)c23)c1` [MC-BMS-690514, BMS-690514]: the “Duplicate of Duplicate of Hits: No CPE” value stood at 1. On to `COc1cc2ncnc(Nc3cccc(I)c3)c2cc1OC` [MC-AG1557, AG1557], for which the “Duplicate of Duplicate of Hits: No CPE” value worked out at 1. The same measure for ZX-29 [MC-ZX-29]: 1; for `C=CC(=O)Nc1cccc(Sc2nc(Nc3ccc(N4CCN(C)CC4)cc3)ncc2Cl)c1` [NKIL-WZ8040, WZ8040]: 1.

In the case of `COc1ccc(-c2cc3c(C)nc(N)nc3n([C@H]3CC[C@H](OCCO)CC3)c2=O)cn1` [NKIL-PF-04691502, PF-04691502], the “Duplicate of Duplicate of Hits: No CPE” value is listed as 1. The same measure for `COc1cc2ncnc(Nc3cccc(Br)c3)c2cc1OC.Cl` [LOPAC-PD153035 hydrochloride, PD153035 hydrochloride]: 1; for `CCN(CC)CCNC(=O)c1c(C)[nH]c(/C=C2\C(=O)Nc3ccc(Cl)cc32)c1C` [MC-SU11652, SU11652]: 1.

As to `CNC(=O)CN1CCC(Oc2cc3c(Nc4cccc(Cl)c4F)ncnc3cc2OC)CC1` [NKIL-AZD8931 (Sapitinib), Sapitinib], the “Duplicate of Duplicate of Hits: No CPE” value was found to be 1. Turning to `O=C(Nc1ccc2[nH]nc(-c3ccncc3)c2c1)[C@@H]1CCN(CC(=O)N2CCN(c3ccc(-c4ncccn4)cc3)CC2)C1` [MC-SCH772984, SCH772984], the “Duplicate of Duplicate of Hits: No CPE” value was 1.

Take `O=C(NOC[C@H](O)CO)c1ccc(F)c(F)c1Nc1ccc(I)cc1F` [LOPAC-PD 0325901, Mirdametinib]: the “Duplicate of Duplicate of Hits: No CPE” value stood at 1. Regarding `O=C(NC[C@H](O)CO)c1ccncc1Nc1ccc(I)cc1F` [NKIL-Pimasertib (AS-703026), Pimasertib], the “Duplicate of Duplicate of Hits: No CPE” value was 1.

Consider `C=CC(=O)Nc1cc(Nc2ncc(C(=O)OC(C)C)c(-c3cn(C)c4ccccc34)n2)c(OC)cc1N(C)CCN(C)C` [MC-Mobocertinib, Mobocertinib], for which the “Duplicate of Duplicate of Hits: No CPE” value is 1.

Take `COc1cc2c(Nc3ccc(Cl)c(Cl)c3F)ncnc2cc1OC[C@@H]1C[C@@H]2CN(C)C[C@@H]2C1` [MC-Tesevatinib, Tesevatinib]: the “Duplicate of Duplicate of Hits: No CPE” value was 1.
